Experimental data taken from ChEMBL document CHEMBL1132747, “Development of plasmin and plasma kallikrein selective inhibitors and their effect on M1 (melanoma) and HT29 cell lines” (Bioorg Med Chem Lett, 2000).

Columns and labels:
[1] = Inhibitory activity of compound was evaluated against plasma kallikrein-S-2302; not detectable; assay type: cell-free
[2] = biological target: T1, Plasminogen (Homo sapiens, UniProt P00747); assay: Inhibitory activity of compound was evaluated against plasmin; not detectable
[3] = Inhibitory activity of compound was evaluated against plasmin-fibrin (Fn); not detectable
[4] = Inhibitory activity of compound was evaluated against thrombin-S-2238; not detectable
[5] = Inhibitory activity of compound was evaluated against thrombin-fibrinogen (Fg); not detectable
[6] = Inhibitory activity of compound was evaluated against urokinase-S-2444; not detectable
[7] = biological target: T1, Plasminogen; assay: Inhibitory activity of compound was evaluated against plasmin
[8] = Inhibitory activity of compound was evaluated against plasmin-fibrin (Fn)
[9] = Inhibitory activity of compound was evaluated against thrombin-fibrinogen (Fg)
[10] = Inhibitory activity of compound was evaluated against thrombin-S-2238
[11] = Inhibitory activity of compound was evaluated against urokinase-S-2444
[12] = Inhibitory activity of compound was evaluated against plasma kallikrein-S-2302; assay type: cell-free

T1 sequence (P00747 97-580 limits assumed): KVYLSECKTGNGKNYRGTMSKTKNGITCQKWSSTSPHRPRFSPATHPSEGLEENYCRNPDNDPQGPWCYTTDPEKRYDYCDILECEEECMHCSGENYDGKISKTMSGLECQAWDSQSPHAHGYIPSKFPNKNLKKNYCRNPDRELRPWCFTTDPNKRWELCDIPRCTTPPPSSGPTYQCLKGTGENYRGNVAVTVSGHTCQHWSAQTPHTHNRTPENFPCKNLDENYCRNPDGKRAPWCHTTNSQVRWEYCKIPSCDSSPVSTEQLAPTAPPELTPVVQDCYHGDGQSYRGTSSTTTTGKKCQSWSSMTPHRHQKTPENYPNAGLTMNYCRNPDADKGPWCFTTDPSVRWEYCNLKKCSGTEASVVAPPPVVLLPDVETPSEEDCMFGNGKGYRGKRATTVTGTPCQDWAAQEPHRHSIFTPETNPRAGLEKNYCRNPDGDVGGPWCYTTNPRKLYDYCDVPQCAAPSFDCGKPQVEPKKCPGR
T1 sequence (P00747 581-810 limits assumed): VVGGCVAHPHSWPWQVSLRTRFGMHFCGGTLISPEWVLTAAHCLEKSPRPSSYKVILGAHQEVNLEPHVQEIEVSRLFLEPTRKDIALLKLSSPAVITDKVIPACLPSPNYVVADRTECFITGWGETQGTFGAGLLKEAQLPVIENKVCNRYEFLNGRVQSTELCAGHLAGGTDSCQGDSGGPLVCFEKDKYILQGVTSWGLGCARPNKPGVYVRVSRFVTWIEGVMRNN

IC50 [7] [µM]	IC50 [8] [µM]	IC50 [9] [µM]	IC50 [10] [µM]	IC50 ([11]; read-out: IC50) [µM]	IC50 [12] [µM]	Compound	further results
–	–	–	–	–	–	Cc1nc(Cc2ccccc2)c(O)nc1CCCCNC(=O)c1cccs1	IC50 [1]: Not detectable; IC50 [2]: Not detectable; IC50 [3]: Not detectable; IC50 [4]: Not detectable; IC50 [5]: Not detectable; IC50 [6]: Not detectable
0.8	0.23	> 25	> 50	> 50	16	CCCCCCCCNC(=O)C(Cc1ccc(OC(=O)OCc2ccccc2Br)cc1)NC(=O)[C@H]1CC[C@H](CN)CC1 (some centres not stated)	–
32	29	> 1000	> 1000	650	0.71	NC[C@H]1CC[C@H](C(=O)NC(Cc2ccc(Oc3ncccn3)cc2)C(=O)Nc2cccc(C(=O)O)c2)CC1 (some centres not stated)	–
0.46	0.056	> 100	70	260	2.1	CC(C)CCNC(=O)C(Cc1ccc(OC(=O)OCc2ccccc2Br)cc1)NC(=O)[C@H]1CC[C@H](CN)CC1 (some centres not stated)	–
0.53	0.36	> 100	> 400	5.3	30	CCCCCCCCNC(=O)C(Cc1ccc(OCc2ccncc2)cc1)NC(=O)[C@H]1CC[C@H](CN)CC1 (some centres not stated)	–
–	0.39	–	–	54	–	Cc1nc(C)c(CCCNC(=O)C(Cc2ccc(OC(=O)OCc3ccccc3Br)cc2)NC(=O)[C@H]2CC[C@H](CN)CC2)nc1O (some centres not stated)	IC50 ([1]; read-out: IC50): 36 µM; IC50 ([2]; read-out: IC50): 0.74 µM; IC50 ([4]; read-out: IC50): 490 µM; IC50 ([5]; read-out: IC50): > 250 µM
–	–	–	–	–	–	Cc1nc(CCC(=O)OCc2ccccc2)c(O)nc1CCCCNC(=O)OCc1ccccc1	IC50 [1]: Not detectable; IC50 [2]: Not detectable; IC50 [3]: Not detectable; IC50 [4]: Not detectable; IC50 [5]: Not detectable; IC50 [11]: Not detectable
–	–	–	–	–	–	Cc1nc(Cc2ccccc2)c(O)nc1Cc1ccccc1	IC50 [1]: Not detectable; IC50 [2]: Not detectable; IC50 [3]: Not detectable; IC50 [4]: Not detectable; IC50 [5]: Not detectable; IC50 [6]: Not detectable
620	350	> 1000	> 1000	350	1.3	NC[C@H]1CC[C@H](C(=O)NC(Cc2ccccc2)C(=O)Nc2ccc(CC(=O)O)cc2)CC1 (some centres not stated)	–
0.23	–	–	–	–	0.37	CC(=O)c1ccc(NC(=O)C(Cc2ccc(OC(=O)OCc3ccccc3Br)cc2)NC(=O)[C@H]2CC[C@H](CN)CC2)cc1 (some centres not stated)	–
2.5	0.56	> 10	> 50	> 50	45	CCCCCCCCOC(=O)[C@H]1CC[C@H](CNC(=O)C(Cc2ccc(OC(=O)OCc3ccccc3Br)cc2)NC(=O)[C@H]2CC[C@H](CN)CC2)CC1 (some centres not stated)	–
